The target in data set [1] is T1, Human PDE10A2 (Homo sapiens (Human), UniProt Q9Y233). Description: Cell based human PDE10A activity assay - cAMP HTRF assay in HEK 293 rhPDE10A2 cell line. The method, then:
Semi log compound dilutions starting at a final concentration of 10 μM were dispensed into a white 384 well plate, alongside DMSO and an Inhibited control using the Tecan D300e digital dispenser. HEK 293 cells overexpressing recombinant human PDE10A2 were seeded on top of the compounds at 2500 cells/well in a volume 5 μL/well. The plate was incubated at room temperature for 60 minutes. To induce endogenous cAMP, 5 μL/well of Forskolin at a final assay concentration of 10 μM was added to the plate. The plate was incubated at room temperature for a further 45 minutes. cAMP HTRF detection reagents were added, and the plate was incubated for 60 minutes at room temperature. […] Data was analysed using a 4-parameter fit.
On the technique in general: In TR-FRET formats the signal depends on donor and acceptor labels being close together.

The target in data set [2] is T1, Human PDE10A2. Description: Biochemical human PDE10A activity assay - PDE10A2 Phosphate Sensor Assay. The following applies: cGMP 3 μM substrate, PDE10A2 0.25 nM. The method, then:
Biochemical Human PDE10A Activity Assay—PDE10A2 Phosphate Sensor Assay
Semi Log compound dilutions starting at a final concentration of 50 μM were dispensed into a black 384 well plate alongside, DMSO and an Inhibited control using the Echo Acoustic dispenser. […] Data was analysed using a 4-parameter fit.

Data set [3] is described as follows: Determination of CNS penetration in vivo (brain to plasma partitioning, Kpuu). Details: species or system Male Sprague Dawley Rats. To be noted: male, Sprague-Dawley, brain / plasma (unbound); rat, IV, 1 mg/kg, 10-30 min post dose.
Data set [4] has as its system inflamed colonic mucosa from ulcerative colitis patients. The data set is described as follows: Ex-vivo colon biopsy culture from ulcerative colitis patients, cytokine release (Protocol 1). It is filed as cell-based, human. The following applies: 100 nM; UC donor 3; vs vehicle control. The method, then: The effect of selective PDE10A inhibition was tested on inflamed colonic mucosa from ulcerative colitis patients taken during routine endoscopy (Protocol 1 detailed below). These samples retain a disease phenotype in ex-vivo culture, secrete high basal levels of inflammatory cytokines, and represent a highly relevant and translational disease model. The effect of the PDE10A inhibitors on levels of the inflammatory cytokines IL-6 and IL-8 released from these tissue samples were measured. Both IL-6 and IL-8 are key regulators in ulcerative colitis pathology and their levels correlate with disease severity (Waldner M J et al. Master regulator of intestinal disease: IL-6 in chronic inflammation and cancer development. Semin Immunol. 26(1), 75-9 (2014); Bernardo D et al. IL-6 promotes immune responses in human ulcerative colitis and induces a skin-homing phenotype in the dendritic cells and T-cells they stimulate. Eur J Immunol. 42(5), 1337-53 (2012); Pearl D S, Cytokine mucosal expression in ulcerative colitis, the relationship between cytokine release and disease activity. J Crohns Colitis. 7(6), 481-9 (2013)).
These colon biopsies retain an inflammatory phenotype and secrete high levels of inflammatory cytokines in ex-vivo culture.
Biopsy tissue was obtained from inflamed colonic mucosa from ulcerative colitis or Crohn's disease patients during routine endoscopy. Ex-vivo biopsy cultures for the analysis of inflammatory cytokine biomarkers were run as previously described (Vossenkämper A. et al. A CD3- specific antibody reduces cytokine production and alters phosphoprotein profiles in intestinal tissues from patients with inflammatory bowel disease. Gastroenterology, 147, 172-183 (2014)). Biopsies were incubated in organ culture for 24 h with the addition of positive control compounds, or specific PDE10A inhibitors. Supernatants collected at the end of the experiment were snap-frozen and stored at −70° C. For the measurement of cytokines, the frozen culture supernatants were thawed and analysed for levels of the inflammatory cytokines using Luminex cytokine assay kits (R&D Systems) and an R&D Systems MAGPIX® analyser. Mean values ±SDs were calculated for the levels of spontaneous cytokine production measured in biopsy culture supernatants from each treatment group.

Setting [5] is: Forskolin 10 μM, read-out: cAMP HTRF Assay in HEK 293 rhPDE10A2 cell line (pIC50) (converted).

Like-named read-outs stand apart in the source and are kept apart here.

Experimental findings from patent US20240336591A1, “ORGANIC PYRIDINE-PYRAZOLE COMPOUNDS AND THEIR USES” (priority 2021, published 2024) are described below.

T1 sequence (Q9Y233 267-1055): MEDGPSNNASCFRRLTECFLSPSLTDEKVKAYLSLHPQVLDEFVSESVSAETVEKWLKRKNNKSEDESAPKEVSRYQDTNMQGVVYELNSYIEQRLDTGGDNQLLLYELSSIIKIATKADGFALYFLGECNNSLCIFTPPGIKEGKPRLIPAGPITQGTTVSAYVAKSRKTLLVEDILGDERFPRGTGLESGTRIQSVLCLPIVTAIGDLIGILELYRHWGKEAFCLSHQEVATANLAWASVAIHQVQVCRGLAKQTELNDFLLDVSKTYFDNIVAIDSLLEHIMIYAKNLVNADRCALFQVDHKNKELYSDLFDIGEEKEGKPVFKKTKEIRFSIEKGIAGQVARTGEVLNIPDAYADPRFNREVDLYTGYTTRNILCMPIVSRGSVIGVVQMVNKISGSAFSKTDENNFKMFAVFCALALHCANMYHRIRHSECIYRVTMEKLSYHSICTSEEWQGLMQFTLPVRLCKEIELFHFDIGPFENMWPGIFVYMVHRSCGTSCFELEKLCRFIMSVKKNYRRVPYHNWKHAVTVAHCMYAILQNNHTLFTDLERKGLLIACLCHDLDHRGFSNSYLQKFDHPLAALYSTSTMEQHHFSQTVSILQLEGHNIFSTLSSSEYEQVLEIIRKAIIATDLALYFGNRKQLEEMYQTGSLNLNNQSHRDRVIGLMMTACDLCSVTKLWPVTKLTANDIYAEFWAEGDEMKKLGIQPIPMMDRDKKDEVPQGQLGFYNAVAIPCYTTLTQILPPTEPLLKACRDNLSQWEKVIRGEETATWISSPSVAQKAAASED

Take `Cn1cc(-c2ccncc2)c(-c2ccc(OCc3nc4ccccc4cc3C(=O)O)cc2)n1` [Example 3, 2-[[4-[1-Methyl-4-(4-pyridyl)pyrazol-3-yl]phenoxy]methyl]quinoline-3-carboxylic acid]: the IC50 at Human PDE10A2 [1] is 2.75 nM. Moreover, at Human PDE10A2 [2], the “PDE10A2 Phosphate Sensor Enzyme Assay (pIC50)” value is 10.1. In data set [3], this compound displayed a Kp uu of 0.56.

As for `Cn1cc(-c2ccncc2)c(-c2ccc(OCc3cc(C(=O)O)c4ccccc4n3)cc2)n1` [Example 4, Ammonium 2-[[4-[1-methyl-4-(4-pyridyl)pyrazol-3-yl]phenoxy]methyl]quinoline-4-carboxylate], the IC50 at Human PDE10A2 [1] is 0.813 nM. Moreover, in data set [4], the “secreted levels of IL-6” value is listed as “significantly reduce” and the “secreted levels of IL-8” value is listed as “significantly reduce”. For the same compound, at Human PDE10A2 [2], the “PDE10A2 Phosphate Sensor Enzyme Assay (pIC50)” value is recorded as 10.1. Besides, the Kp uu in data set [3] was 0.32.

At Human PDE10A2 [1], `O=C(O)Cn1cc(-c2ccncc2)c(-c2ccc(OCc3ccc4ccccc4n3)cc2)n1` [Example 5, 2-[4-(4-Pyridyl)-3-[4-(2-quinolylmethoxy)phenyl]pyrazol-1-yl]acetic acid] gave an IC50 of 75.9 nM. At Human PDE10A2 [2], the “PDE10A2 Phosphate Sensor Enzyme Assay (pIC50)” value was 9.41. The compound also showed a Kp uu in data set [3] of 0.02.

On Human PDE10A2 [1], `Cn1cc(-c2ccncc2)c(-c2ccc(OCc3nc4ccccc4cc3C(=O)NS(C)(=O)=O)cc2)n1` [Example 9, 2-[[4-[1-Methyl-4-(4-pyridyl)pyrazol-3-yl]phenoxy]methyl]-N-methylsulfonyl-quinoline-3-carboxamide] had an IC50 of 1.66 nM. For the same compound, in data set [4], the “secreted levels of IL-6” value was “significantly reduce” and the “secreted levels of IL-8” value is listed as “significantly reduce”. Also, at Human PDE10A2 [2], the “PDE10A2 Phosphate Sensor Enzyme Assay (pIC50)” value amounted to 10.1. The compound further displayed a Kp uu in data set [3] of 0.37.

As to `Cn1cc(-c2ccncc2)c(-c2ccc(OCc3nc4ccccc4cc3C(=O)N=S(C)(C)=O)cc2)n1` [Example 10, N-[Dimethyl(oxo)-λ6-sulfanylidene]-2-[[4-[1-methyl-4-(4-pyridyl)pyrazol-3-yl]phenoxy]methyl]quinoline-3-carboxamide], the IC50 on Human PDE10A2 [1] was 1.1 nM. In data set [4], the “secreted levels of IL-6” value is “significantly reduce” and the “secreted levels of IL-8” value is listed as “significantly reduce”. For the same compound, on Human PDE10A2 [2], the “PDE10A2 Phosphate Sensor Enzyme Assay (pIC50)” value amounted to 10. For the same compound, the Kp uu in data set [3] amounted to 0.02.

In turn, `Cn1cc(-c2ccncc2)c(-c2ccc(OCc3cc(C(=O)N=S(C)(C)=O)c4ccccc4n3)cc2)n1` [Example 11, N-[Dimethyl(oxo)-λ6-sulfanylidene]-2-[[4-[1-methyl-4-(4-pyridyl)pyrazol-3-yl]phenoxy]methyl]quinoline-4-carboxamide] had an IC50 against Human PDE10A2 [1] of 1 nM. In addition, in data set [4], the “secreted levels of IL-6” value is recorded as “significantly reduce” and the “secreted levels of IL-8” value is reported as “significantly reduce”. Further, the “PDE10A2 Phosphate Sensor Enzyme Assay (pIC50)” value at Human PDE10A2 [2] is recorded as 10.1. Also, in data set [3], the Kp uu amounted to 0.02.

On Human PDE10A2 [1], `CN(C(=O)c1cc2ccccc2nc1COc1ccc(-c2nn(C)cc2-c2ccncc2)cc1)S(C)(=O)=O` [Example 15, N-Methyl-2-[[4-[1-methyl-4-(4-pyridyl)pyrazol-3-yl]phenoxy]methyl]-N-methylsulfonyl-quinoline-3-carboxamide] showed an IC50 of 10.7 nM. Also, at Human PDE10A2 [2], the “PDE10A2 Phosphate Sensor Enzyme Assay (pIC50)” value was found to be 9.22. Moreover, in data set [3], the Kp uu was determined as 0.06.

Compound `Cn1cc(-c2ccncc2)c(-c2ccc(OCc3nc(C(=O)N=S(C)(C)=O)c4ccccc4n3)cc2)n1` [Example 17, N-[Dimethyl(oxo)-λ6-sulfanylidene]-2-[[4-[1-methyl-4-(4-pyridyl)pyrazol-3-yl]phenoxy]methyl]quinazoline-4-carboxamide] gave an IC50 against Human PDE10A2 [1] of 3.02 nM. Besides, in data set [4], the “secreted levels of IL-6” value is given as “significantly reduce” and the “secreted levels of IL-8” value was “significantly reduce”. The “PDE10A2 Phosphate Sensor Enzyme Assay (pIC50)” value on Human PDE10A2 [2] is 9.92. For the same compound, the Kp uu in data set [3] worked out at 0.06.

In turn, `Cn1cc(-c2ccncc2)c(-c2ccc(OCc3nc4ccccc4nc3C(=O)N=S(C)(C)=O)cc2)n1` [Example 18, N-[Dimethyl(oxo)-λ6-sulfanylidene]-3-[[4-[1-methyl-4-(4-pyridyl)pyrazol-3-yl]phenoxy]methyl]quinoxaline-2-carboxamide] had an IC50 against Human PDE10A2 [1] of 102 nM. Further, on Human PDE10A2 [2], the “PDE10A2 Phosphate Sensor Enzyme Assay (pIC50)” value is 9.34. The compound also yielded a Kp uu in data set [3] of 0.03.

The compound `Cn1cc(-c2ccncc2)c(-c2ccc(OCc3nc4cccnc4cc3C(=O)N=S(C)(C)=O)cc2)n1` [Example 19, N-[Dimethyl(oxo)-λ6-sulfanylidene]-2-[[4-[1-methyl-4-(4-pyridyl)pyrazol-3-yl]phenoxy]methyl]-1,5-naphthyridine-3-carboxamide] showed an IC50 against Human PDE10A2 [1] of 5.37 nM. For the same compound, in data set [4], the “secreted levels of IL-6” value is on record as “significantly reduce” and the “secreted levels of IL-8” value was “significantly reduce”. Further, at Human PDE10A2 [2], the “PDE10A2 Phosphate Sensor Enzyme Assay (pIC50)” value stood at 9.43. In data set [3], this compound displayed a Kp uu of 0.05.

The compound `Cn1cc(-c2ccncc2)c(-c2ccc(OCc3nc4ccccn4c3C(=O)N=S(C)(C)=O)cc2)n1` [Example 20, N-[Dimethyl(oxo)-λ6-sulfanylidene]-2-[[4-[1-methyl-4-(4-pyridyl)pyrazol-3-yl]phenoxy]methyl]imidazo[1,2-a]pyridine-3-carboxamide] had an IC50 against Human PDE10A2 [1] of 6.76 nM. Moreover, in data set [4], the “secreted levels of IL-6” value is reported as “significantly reduce” and the “secreted levels of IL-8” value is on record as “significantly reduce”. Besides, the “PDE10A2 Phosphate Sensor Enzyme Assay (pIC50)” value at Human PDE10A2 [2] came to 9.76. Moreover, the Kp uu in data set [3] stood at 0.11.

`Cn1cc(-c2ccncc2)c(-c2ccc(OCc3nc(N4CCS(=O)(=O)CC4)c4ccccc4n3)cc2)n1` [Example 37, 4-[2-[[4-[1-Methyl-4-(4-pyridyl)pyrazol-3-yl]phenoxy]methyl]quinazolin-4-yl]-1,4-thiazinane 1,1-dioxide]: the IC50 on Human PDE10A2 [1] (setting [5]) is 1.48 nM. For the same compound, the “PDE10A2 Phosphate Sensor Enzyme Assay (pIC50)” value at Human PDE10A2 [2] is 9.65.

Consider `Cn1cc(-c2ccncc2)c(-c2ccc(OCc3nc(N4CCNC(=O)C4)c4ccccc4n3)cc2)n1` [Example 38, 4-[2-[[4-[1-Methyl-4-(4-pyridyl)pyrazol-3-yl]phenoxy]methyl]quinazolin-4-yl]piperazin-2-one], for which the IC50 on Human PDE10A2 [1] (setting [5]) was 0.269 nM. The “PDE10A2 Phosphate Sensor Enzyme Assay (pIC50)” value on Human PDE10A2 [2] came out at 10.1.

`Cn1cc(-c2ccncc2)c(-c2ccc(OCc3nc(N4CC(N)C4)c4ccccc4n3)cc2)n1` [Example 39, 1-[2-[[4-[1-Methyl-4-(4-pyridyl)pyrazol-3-yl]phenoxy]methyl]quinazolin-4-yl]azetidin-3-amine]: the IC50 on Human PDE10A2 [1] (setting [5]) is 24.5 nM. Also, on Human PDE10A2 [2], the “PDE10A2 Phosphate Sensor Enzyme Assay (pIC50)” value came out at 9.46.

Take `Cn1cc(-c2ccncc2)c(-c2ccc(OCc3nc(N4CCNCC4)c4ccccc4n3)cc2)n1` [Example 40, 2-[[4-[1-Methyl-4-(4-pyridyl)pyrazol-3-yl]phenoxy]methyl]-4-piperazin-1-yl-quinazoline]: the IC50 on Human PDE10A2 [1] (setting [5]) is 4.57 nM. Besides, the “PDE10A2 Phosphate Sensor Enzyme Assay (pIC50)” value on Human PDE10A2 [2] was 8.98.

For the compound `Cn1cc(-c2ccncc2)c(-c2ccc(OCc3nc4ccccc4nc3N3CC(N)C3)cc2)n1` [Example 41, 1-[3-[[4-[1-Methyl-4-(4-pyridyl)pyrazol-3-yl]phenoxy]methyl]quinoxalin-2-yl]azetidin-3-amine], the IC50 against Human PDE10A2 [1] was 7.59 nM. In addition, the “PDE10A2 Phosphate Sensor Enzyme Assay (pIC50)” value at Human PDE10A2 [2] is given as 9.45.

On Human PDE10A2 [1], `Cn1cc(-c2ccncc2)c(-c2ccc(OCc3nc4ccccc4nc3N3CCNCC3)cc2)n1` [Example 42, 2-[[4-[1-Methyl-4-(4-pyridyl)pyrazol-3-yl]phenoxy]methyl]-3-piperazin-1-yl-quinoxaline] had an IC50 of 12.3 nM. The “PDE10A2 Phosphate Sensor Enzyme Assay (pIC50)” value at Human PDE10A2 [2] was determined as 8.96.
